Reference: patent US12692288B2, “Crystalline and liquid crystalline 25-hydroxy-cholest-5-en-3-sulfate sodium and methods for preparing same” (Medicis Pharmaceutical Corporation, priority 2019, dated 2026)
One block for each molecule: values may come before it.

How the values were obtained:
Assay type in all cases: physicochemical
[1] = Dynamic vapor sorption/desorption (DVS), VTI SGA-100; settings: for form of material recovered after DVS, by XRPD: after sorption/desorption 5% to 95% RH
Procedure: Moisture sorption/desorption data were collected on a VTI SGA-100 Vapor Sorption Analyzer. NaCl and PVP were used as calibration standards. Samples were not dried prior to analysis. […] The equilibrium criterion used for analysis was less than 0.0100% weight change in 5 minutes with a maximum equilibration time of 3 hours. Data were not corrected for the initial moisture content of the samples.

[2] = Dynamic Vapor Sorption test (SMS DVS Intrinsic), Example 23; settings: 25° C.
Procedure: Dynamic Vapor Sorption (DVS) was measured using an SMS (Surface Measurement Systems) DVS Intrinsic. [table]

[3] = Water activity slurries in aqueous solvent mixtures, solid phase by XRPD
Source text: The effect of water activity (aw) on the hydration state can be investigated through competitive water activity trituration experiments (slurries) in various aqueous solvent mixtures. The resulting solid phase can be characterized by x-ray powder diffraction. The experiments can establish the physically stable form at various aw. Water activity can also be related to relative humidity in that RH %=aw×100. Therefore, it is possible to directly relate the stability of an anhydrous/hydrate system in slurry experiments to solid-state stability. The slurry technique at controlled water activities can provide an accurate method of rapidly predicting the physically stable form in anhydrous/hydrate systems. […] The times, temperatures, and humidity are approximate. As with Table 1, the term “B” means birefringent when viewed by polarized light microscopy with cross polars.
Solutions were prepared by adding enough solids to a given solvent so that excess solids were present. The mixture was then agitated in a sealed vial at either ambient or elevated temperature. After a given amount of time, the solids were isolated for analysis.

[4] = Physical stability of forms on exposure to humidity, temperature or vacuum, by XRPD
Source text: X-ray powder diffraction patterns were collected with a PANalytical X'Pert PRO MPD or PANalytical Empyrean diffractometer using an incident beam of Cu radiation produced using a long, fine-focus source. An elliptically graded multilayer mirror was used to focus Cu Kα x-rays through the specimen and onto the detector. […] A specimen of the sample was sandwiched between 3-μm-thick films and analyzed in transmission geometry. A beam-stop, short anti-scatter extension, and anti-scatter knife edge were used to minimize the background generated by air. Soller slits for the incident and diffracted beams were used to minimize broadening and asymmetry from axial divergence. Diffraction patterns were collected using a scanning position-sensitive detector (X'Celerator) located 240 mm from the specimen and Data Collector software v. 2.2b or 5.5. All images were produced with the instrument labeled as X'Pert PRO MPD regardless of the instrument used.
X-ray powder diffraction patterns were collected with a PANalytical X'Pert PRO MPD diffractometer using an incident beam of Cu Kα radiation produced using a long, fine-focus source and a nickel filter. The diffractometer was configured using the symmetric Bragg—Brentano geometry. […] A specimen of the sample was packed in a well. Anti-scatter slits were used to minimize the background generated by air. Soller slits for the incident and diffracted beams were used to minimize broadening from axial divergence. Diffraction patterns were collected using a scanning position-sensitive detector (X'Celerator) located 240 mm from the sample and Data Collector software v. 2.2b.

[5] = Variable humidity XRPD (VH-XRPD); settings: for time to complete dehydration/conversion to Form XIII: exposure to 0% RH
Source text: (§1) X-ray powder diffraction patterns were collected with a PANalytical X'Pert PRO MPD diffractometer using an incident beam of Cu Kα radiation produced using a long, fine-focus source and a nickel filter. The diffractometer was configured using the symmetric Bragg—Brentano geometry. Data were collected and analyzed using Data Collector software v. 2.2b. […] A specimen of the sample was packed in a nickel-coated copper well. Antiscatter slits were used to minimize the background generated by air. Soller slits for the incident and diffracted beams were used to minimize broadening from axial divergence. Diffraction patterns were collected using a scanning position-sensitive detector (X'Celerator) located 240 mm from the sample and Data Collector software v. 2.2b.
An Anton Paar temperature-humidity chamber (THC) was used to collect in-situ x-ray powder diffraction patterns as a function of humidity. The temperature of the specimen was controlled with a Peltier thermoelectric device located directly under the specimen holder and monitored with a platinum-100 resistance sensor located in the specimen holder. The thermoelectric device was powered and controlled by an Anton Paar TCU 50 interfaced with Data Collector software.
The humidity was generated with an RH-200 manufactured by VTI Inc. and carried by a flow of nitrogen gas. The humidity and temperature were monitored by a Rotronic HygroClip sensor located next to the specimen inside the THC.

[6] = Variable temperature XRPD (VT-XRPD)
Source text: as §1, with “air scattering.” for “air.”, “sample.” for “sample and Data Collector software v. 2.2b.”
An Anton Paar TTK 450 stage was used to collect in-situ x-ray powder diffraction patterns as a function of temperature. The sample was heated with a resistance heater located directly under the sample holder, and the temperature was monitored with a platinum-100 resistance sensor located in the specimen holder. The heater was powered and controlled by an Anton Paar TCU 100 interfaced with Data Collector software.

[7] = from 5 to 25% RH, screening material, mixture of Form I and Form II
[8] = from 25 to 85% RH, screening material, mixture of Form I and Form II

- water corresponding to weight gain (DVS) [1, 7]: 1.5 mol/mol water
- weight gain (DVS) [1, 7]: approximately 5 wt %
- water corresponding to weight gain (DVS) [1, 8]: 1.8 mol/mol water
- weight gain (DVS) [1, 8]: ~6 wt %
- weight gain (DVS) ([1]; from 85 to 95% RH): ~6 wt %
- hygroscopicity (DVS isotherm) ([1]; screening material, mixture of Form I and Form II): hygroscopic
- hygroscopicity (DVS test) [2]: hygroscopic
- moisture reversibly absorbed ([2]; below 30% RH): 7.0%
- water absorbed ([2]; by 95% RH): 8.5%
- Result (form) of water activity slurry ([3]; 0.73 aw, 94:06 ACN/H2O, 8 days, approximately room temperature): I +
- Result (form) of water activity slurry ([3]; combination of samples from 0.5 aw and 0.38 aw, 56 days, filtered and dried under N2 for 30 min.): I +
- form after heat exposure, by XRPD ([4]; briefly exposed to 130° C., screening material, mixture of Form I and Form II): mixture of Forms I, II, and XIII
Compound: C[C@H](CCCC(C)(C)O)[C@H]1CCC2C3CC=C4C[C@@H](OS(=O)(=O)[O-])CC[C@]4(C)C3CC[C@@]21C.[Na+] (stereo partly drawn) [25HC3S sodium, Sodium [(3S,10R,13R,17R)-17-[(1R)-5-hydroxy-1,5-dimethyl-hexyl]-10,13-dimethyl-2,3,4,7,8,9,11,12,14,15,16,17-dodecahydro-1H-cyclopenta[a]phenanthren-3-yl] sulfate]
- form of material recovered after DVS, by XRPD [1]: predominantly Form I with an additional peak near 8.8°
- form after humidity exposure, by XRPD ([4]; 75% RH for 10 days, screening material, mixture of Form I and Form II): predominately Form I and two additional peaks near 4.4°2θ and 8.8°2θ

Compound: C[C@H](CCCC(C)(C)O)[C@H]1CC[C@H]2[C@@H]3CC=C4C[C@@H](OS(=O)(=O)[O-])CC[C@]4(C)[C@H]3CC[C@]12C.[Na+] [Form I, 25HC3S sodium]
- water activity above which Form I is believed to form liquid crystal Form V [3]: above 0.73 aw
- behaviour upon exposure to 0% RH ([5]; 0% RH): dehydrate within minutes to Form XIII
- time to complete dehydration/conversion to Form XIII [5]: 20 min
- hygroscopicity [4]: hygroscopic
- form change on drying ([4]; exposure to either 0% RH or 70° C. under vacuum): dehydrated Form I to Form XIII
- temperature by which decomposition product trisodium hydrogen disulfate, Na3H(SO4)2, was evident [6]: ≤ 170 °C
- form shown after dehydration by heating ([6]; heating to 170° C. and then dropping to 135° C.): Form XIII

Compound: C[C@H](CCCC(C)(C)O)[C@H]1CC[C@H]2[C@@H]3CC=C4C[C@@H](OS(=O)(=O)[O-])CC[C@]4(C)[C@H]3CC[C@]12C.[Na+] [Form II, 25HC3S sodium]
- water accommodated in fully hydrated state ([1]; DVS sorption isotherm at 85% RH (FIG. 16)): approximately 3 mol/mol of water
- form of material recovered after DVS, by XRPD [1]: mixture of Form II and Form V
- water corresponding to weight gain (DVS) ([1]; from 5 to 55% RH): 1 mol/mol water
- weight gain (DVS) ([1]; from 5 to 55% RH): approximately 3.5 wt %
- water corresponding to weight gain (DVS) ([1]; from 55 to 85% RH): 2 mol/mol water
- weight gain (DVS) ([1]; from 55 to 85% RH): ~7 wt %
- weight gain (DVS) ([1]; from 85 to 95% RH): ~7 wt %
- form change in variable humidity XRPD ([5]; ambient temperature, 0% to 85% RH): a form change did not occur
- relative humidity of exposure at which the form converts to Form V [4]: ≥ 75 % RH
- time to conversion to Form V ([4]; exposure to 75% RH): up to 35 days
- form stability by XRPD ([4]; stored at 0% RH for up to 35 days): remained unchanged
- form stability by XRPD ([4]; under dry nitrogen for up to 4 days): remained unchanged
- form observed by XRPD at elevated temperature ([6]; 135° C.): still observed

Compound: C[C@H](CCCC(C)(C)O)[C@H]1CC[C@H]2[C@@H]3CC=C4C[C@@H](OS(=O)(=O)[O-])CC[C@]4(C)[C@H]3CC[C@]12C.[Na+] [Form III, 25HC3S sodium]
- form change on heating ([4]; 58° C. and vacuum overnight, or 130° C.): desolvates to another anhydrous form, Form IX
- form change at ambient conditions [4]: desolvates to Form II

Compound: C[C@H](CCCC(C)(C)O)[C@H]1CC[C@H]2[C@@H]3CC=C4C[C@@H](OS(=O)(=O)[O-])CC[C@]4(C)[C@H]3CC[C@]12C.[Na+] [Form V, 25HC3S sodium]
- water activity of aqueous solvent mixture slurries from which the form resulted [3]: above 0.73 aw
- physical stability by XRPD ([4]; exposure to 55° C. and vacuum for 1 day): remained Form V
- physical stability by XRPD ([4]; storage at ambient conditions for 25 days): no changes observed

Compound: C[C@H](CCCC(C)(C)O)[C@H]1CC[C@H]2[C@@H]3CC=C4C[C@@H](OS(=O)(=O)[O-])CC[C@]4(C)[C@H]3CC[C@]12C.[Na+] [Form XIII, 25HC3S sodium]
- relative humidity before which Form XIII hydrates to Form I ([5]; increasing humidity): < 25 % RH
- form change at ambient conditions [4]: quickly hydrates to Form I

Compound: C[C@H](CCCC(C)(C)O)[C@H]1CC[C@H]2[C@@H]3CC=C4C[C@@H](OS(=O)(=O)[O-])CC[C@]4(C)[C@H]3CC[C@]12C.[Na+] [Forms I+XIII, 25HC3S sodium]
- time to complete dehydration/conversion to Form XIII [5]: ≤ 20 min
- form change on exposure to humidity ([5]; isolated at 15% RH, exposed to 25% RH, held minimum one hour): converted to Form I
